Reference: the NIST ThermoML archive (doi:10.1016/j.tca.2015.01.022)

Experiments:
[1] = for molar entropy: 101.33 kPa, Small (less than 1 g) adiabatic calorimetry
[2] = Molar enthalpy of transition or fusion; settings: Crystal; Adiabatic calorimetry

CCCCn1cc[n+](C)c1.F[B-](F)(F)F [1-butyl-3-methylimidazolium tetrafluoroborate]
Settings	Glass transition temperature [°C]
[1], Glass, Adiabatic calorimetry	-92

CCCCCCCC[n+]1ccn(C)c1.F[B-](F)(F)F [1-methyl-3-octylimidazolium tetrafluoroborate]
Settings	Molar enthalpy of transition or fusion [kJ/mol]
[2]	15.31

[1]
Settings	Glass transition temperature [°C]	Triple point temperature [K]	molar entropy [J/K/mol]
0 K, Glass	–	–	13.9
5 K, Crystal	–	–	0.507
5 K, Glass	–	–	14.5
10 K, Crystal	–	–	3.61
10 K, Glass	–	–	18
15 K, Crystal	–	–	9.69
15 K, Glass	–	–	24.5
20 K, Crystal	–	–	17.96
20 K, Glass	–	–	33.1
25 K, Crystal	–	–	27.66
25 K, Glass	–	–	43.1
30 K, Crystal	–	–	38.29
30 K, Glass	–	–	54.1
35 K, Crystal	–	–	49.44
35 K, Glass	–	–	65.5
40 K, Crystal	–	–	60.82
40 K, Glass	–	–	77.1
45 K, Crystal	–	–	72.28
45 K, Glass	–	–	88.7
50 K, Crystal	–	–	83.73
50 K, Glass	–	–	100.3
60 K, Crystal	–	–	106.3
60 K, Glass	–	–	123.1
70 K, Crystal	–	–	128.1
70 K, Glass	–	–	145.2
80 K, Crystal	–	–	149.2
80 K, Glass	–	–	166.7
90 K, Crystal	–	–	169.5
90 K, Glass	–	–	187.6
100 K, Crystal	–	–	189.1
100 K, Glass	–	–	207.9
110 K, Crystal	–	–	208
110 K, Glass	–	–	227.7
120 K, Crystal	–	–	226.3
120 K, Glass	–	–	247
130 K, Crystal	–	–	244.2
130 K, Glass	–	–	265.9
140 K, Crystal	–	–	261.5
140 K, Glass	–	–	284.4
150 K, Crystal	–	–	278.4
150 K, Glass	–	–	302.8
160 K, Crystal	–	–	295
160 K, Glass	–	–	320.9
170 K, Crystal	–	–	311.3
170 K, Glass	–	–	338.9
180 K, Crystal	–	–	327.5
180 K, Glass	–	–	356.9
190 K, Crystal	–	–	343.6
190 K, Glass	–	–	375.5
200 K, Crystal	–	–	359.6
200 K, Liquid	–	–	398.7
210 K, Crystal	–	–	375.6
210 K, Liquid	–	–	421.4
220 K, Crystal	–	–	391.5
220 K, Liquid	–	–	442.9
230 K, Crystal	–	–	407.4
230 K, Liquid	–	–	463.6
240 K, Crystal	–	–	423.2
240 K, Liquid	–	–	483.5
245.81 K, Crystal	–	–	432.4
245.81 K, Liquid	–	–	494.7
250 K, Liquid	–	–	502.7
260 K, Liquid	–	–	521.3
270 K, Liquid	–	–	539.4
280 K, Liquid	–	–	557
290 K, Liquid	–	–	574.3
298.15 K, Liquid	–	–	588
300 K, Liquid	–	–	591.1
310 K, Liquid	–	–	607.5
320 K, Liquid	–	–	623.7
330 K, Liquid	–	–	639.5
340 K, Liquid	–	–	655
350 K, Liquid	–	–	670.3
360 K, Liquid	–	–	685.3
370 K, Liquid	–	–	700.1
Crystal, Adiabatic calorimetry	–	245.81	–
Glass, Adiabatic calorimetry	-83	–	–

CCOS(=O)(=O)[O-].CCn1cc[n+](C)c1 [1-ethyl-3-methylimidazolium ethyl sulfate]
Settings	Glass transition temperature [°C]
[1], Glass, Adiabatic calorimetry	-88
